Measured values from PubChem BioAssay (NCI).
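Growth conditions: 96-well plates. Treatment: test compound, 48 hours, 5 concentrations. Analysis: linear interpolation between bracketing concentrations; unreached endpoints set to highest concentration. GI50 is the concentration that inhibits growth by half. TGI: total growth inhibition.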

Legend:
Assay in all cases: NCI anticancer screen, dose series, 48 h
[1] = system: SF-268 CNS
[2] = system: CAKI-1 renal
[3] = system: MOLT-4 leukemia
[4] = system: HL-60(TB) leukemia
[5] = system: LOX IMVI melanoma
[6] = system: MCF7 breast
[7] = system: BT-549 breast
[8] = system: HCT-116 colon
[9] = system: NCI-H522 lung
[10] = system: SR leukemia
[11] = system: SK-MEL-5 melanoma
[12] = system: SNB-19 CNS
[13] = system: SW-620 colon
[14] = system: K-562 leukemia
[15] = system: SK-MEL-28 melanoma
[16] = system: HS 578T breast
[17] = system: SF-539 CNS
[18] = system: SNB-75 CNS
[19] = system: HT29 colon
[20] = system: PC-3 prostate
[21] = system: COLO 205 colon
[22] = system: NCI/ADR-RES ovarian
[23] = system: RXF 393 renal
[24] = system: ACHN renal
[25] = system: SK-OV-3 ovarian
[26] = system: NCI-H460 lung
[27] = system: U251 CNS
[28] = system: DU-145 prostate
[29] = system: UO-31 renal
[30] = system: RPMI-8226 leukemia
[31] = system: OVCAR-8 ovarian
[32] = system: OVCAR-5 ovarian
[33] = system: HOP-62 NSCLC
[34] = system: A549 NSCLC
[35] = system: CCRF-CEM leukemia
[36] = system: MDA-MB-435
[37] = system: M14 melanoma
[38] = system: OVCAR-4 ovarian
[39] = system: HCT-15 colon
[40] = system: MALME-3M melanoma
[41] = system: UACC-257 melanoma
[42] = system: MDA-MB-231 breast
[43] = system: UACC-62 melanoma
[44] = system: SN12C renal
[45] = system: 786-0 renal

Structure (SMILES): O=C1c2c(c3c4cc(Br)ccc4[nH]c3c3ccc4ccccc4c23)C(=O)N1CCN1CCCCC1
- GI50 [1]: 1.44 µM
- TGI [1]: 4.08 µM
- GI50 [2]: 1.29 µM
- TGI [2]: 2.79 µM
- GI50 [3]: 0.314 µM
- TGI [3]: 2.53 µM
- GI50 [4]: 1.44 µM
- TGI [4]: 6.1 µM
- GI50 [5]: 1.18 µM
- TGI [5]: 2.66 µM
- GI50 [6]: 0.178 µM
- TGI [6]: 1.77 µM
- GI50 [7]: 9.5 µM
- TGI [7]: > 100 µM
- GI50 [8]: 1.2 µM
- TGI [8]: 2.52 µM
- GI50 [9]: 1.23 µM
- TGI [9]: 2.69 µM
- GI50 [10]: 0.1 µM
- TGI [10]: 1.84 µM
- GI50 [11]: 1.77 µM
- TGI [11]: 3.27 µM
- GI50 [12]: 1.72 µM
- TGI [12]: > 100 µM
- GI50 [13]: 1.04 µM
- TGI [13]: 2.39 µM
- GI50 [14]: 0.912 µM
- TGI [14]: 3.3 µM
- GI50 [15]: 1.77 µM
- TGI [15]: 3.29 µM
- GI50 [16]: 2.04 µM
- TGI [16]: 4.89 µM
- GI50 [17]: 1.57 µM
- TGI [17]: 3.08 µM
- GI50 [18]: 1.52 µM
- TGI [18]: 3.44 µM
- GI50 [19]: 1.23 µM
- TGI [19]: 2.56 µM
- GI50 [20]: 1.47 µM
- TGI [20]: 2.93 µM
- GI50 [21]: 1.43 µM
- TGI [21]: 3.15 µM
- GI50 [22]: 1.28 µM
- TGI [22]: 3.34 µM
- GI50 [23]: 1.48 µM
- TGI [23]: 2.93 µM
- GI50 [24]: 0.783 µM
- TGI [24]: 2.03 µM
- GI50 [25]: 2.66 µM
- TGI [25]: > 100 µM
- GI50 [26]: 0.39 µM
- TGI [26]: 1.52 µM
- GI50 [27]: 0.884 µM
- TGI [27]: 2.13 µM
- GI50 [28]: 1.1 µM
- TGI [28]: 2.48 µM
- GI50 [29]: 1.5 µM
- TGI [29]: 3 µM
- GI50 [30]: 1.63 µM
- TGI [30]: 3.94 µM
- GI50 [31]: 1.21 µM
- TGI [31]: 2.59 µM
- GI50 [32]: 1.85 µM
- TGI [32]: 3.39 µM
- GI50 [33]: 0.689 µM
- TGI [33]: 2.03 µM
- GI50 [34]: 1.38 µM
- TGI [34]: 2.74 µM
- GI50 [35]: 0.331 µM
- TGI [35]: 2.18 µM
- GI50 [36]: 1.61 µM
- TGI [36]: 3.11 µM
- GI50 [37]: 1.36 µM
- TGI [37]: 2.81 µM
- GI50 [38]: 1.8 µM
- TGI [38]: 3.68 µM
- GI50 [39]: 1.54 µM
- TGI [39]: 3.52 µM
- GI50 [40]: 1.62 µM
- TGI [40]: 3.11 µM
- GI50 [41]: 1.69 µM
- TGI [41]: 3.2 µM
- GI50 [42]: 1.57 µM
- TGI [42]: 3.22 µM
- GI50 [43]: 1.97 µM
- TGI [43]: 7.3 µM
- GI50 [44]: 1.44 µM
- TGI [44]: 3.16 µM
- GI50 [45]: 1.68 µM
- TGI [45]: 3.1 µM
